One data set has as its target T1, CYP2D6 (Homo sapiens, UniProt P10635).
T1 construct: tissue BD-Gentest 452117; host or cells: human liver microsomes
Briefly: CYP inhibition assay in human liver microsome. The note with it: human liver microsomes, probe dextromethorphan, dextromethorphan substrate, percentage inhibition <0: not or weak inhibitor, read-out: CYP 2D6 inhibition %@10 μM. Type of data set: in vitro ADME. As to the method: The compounds would be desirable to have minimal DDI liabilities. Therefore, the effects of compounds of formula (I) or (Ia) on CYP2D6 are determined.
This is a high throughput screening assay used for assessment of reversible inhibition of CYP2D6 activity of test compounds in human liver microsome (HLM) in early discovery stage.
10 mM DMSO stock solutions of test compounds were diluted in DMSO to generate 2 mM intermediate stock solution. 250 nL of intermediate stock solution were transferred in duplicate into 3 separate 384 well microtitre plates (assay-ready plates). A mixture of HLM and each substrate was made up. 45 μL of HLM substrate mix was then transferred to each well of an assay ready plate and mixed. The negative (solvent) and positive control (standard inhibitor for CYP 2D6) were included in each assay ready plate. The assay ready plate was warmed to 37° C. in an incubator over 10 minutes. 5 μL pre-warmed NADPH regenerating system was added to each incubation well to start the reaction. Final incubation volume was 50 μL. The assay plate then was placed back in the 37° C. incubator. After 10 minutes incubation, incubates were quenched by addition of 50 μL 100% acetonitrile containing internal standards (20 ng/mL D3-Dextrorphan). The supernatants were collected for RapidFire/MS/MS analysis.
RapidFire online solid phase extraction/sample injection system (Agilent) coupled with API4000 triple quadrupole mass spectrometer (AB Sciex) were used for sample analysis. The mobile phase composed of acetonitrile and water supplemented with 0.1% formic acid. A C4 solid phase extraction cartridge is used for sample separation. MS detection is achieved in positive ion MRM mode.
Data analysis Peak areas for substrate, metabolite and internal standard are determined using the RapidFire integrator software (version 3.6.12009.12296). Peak area ratios (PAR) of metabolite and internal standard (stable-labelled metabolite) are then calculated. The measurement window for each experiment is then defined:
PAR (0% activity), average PAR for all incubations containing concentrated inhibitor; Par (100% activity), average PAR for all incubations containing no inhibitor (DMSO controls);
% Activity (test inhibitor)=
=[PAR(test inhibitor)-PAR(0% activity)]/[PAR(100% activity)-PAR(0% activity)];
% Inhibition (test inhibitor)=100-% Activity (test inhibitor).
On the technique in general: Microsomes from liver hold many membrane-bound enzymes, among them those of drug oxidation.

For a further data set, the target named is T2, hTLR9 (Homo sapiens, UniProt Q9NR96).
T2 sequence (Q9NR96 26-1032): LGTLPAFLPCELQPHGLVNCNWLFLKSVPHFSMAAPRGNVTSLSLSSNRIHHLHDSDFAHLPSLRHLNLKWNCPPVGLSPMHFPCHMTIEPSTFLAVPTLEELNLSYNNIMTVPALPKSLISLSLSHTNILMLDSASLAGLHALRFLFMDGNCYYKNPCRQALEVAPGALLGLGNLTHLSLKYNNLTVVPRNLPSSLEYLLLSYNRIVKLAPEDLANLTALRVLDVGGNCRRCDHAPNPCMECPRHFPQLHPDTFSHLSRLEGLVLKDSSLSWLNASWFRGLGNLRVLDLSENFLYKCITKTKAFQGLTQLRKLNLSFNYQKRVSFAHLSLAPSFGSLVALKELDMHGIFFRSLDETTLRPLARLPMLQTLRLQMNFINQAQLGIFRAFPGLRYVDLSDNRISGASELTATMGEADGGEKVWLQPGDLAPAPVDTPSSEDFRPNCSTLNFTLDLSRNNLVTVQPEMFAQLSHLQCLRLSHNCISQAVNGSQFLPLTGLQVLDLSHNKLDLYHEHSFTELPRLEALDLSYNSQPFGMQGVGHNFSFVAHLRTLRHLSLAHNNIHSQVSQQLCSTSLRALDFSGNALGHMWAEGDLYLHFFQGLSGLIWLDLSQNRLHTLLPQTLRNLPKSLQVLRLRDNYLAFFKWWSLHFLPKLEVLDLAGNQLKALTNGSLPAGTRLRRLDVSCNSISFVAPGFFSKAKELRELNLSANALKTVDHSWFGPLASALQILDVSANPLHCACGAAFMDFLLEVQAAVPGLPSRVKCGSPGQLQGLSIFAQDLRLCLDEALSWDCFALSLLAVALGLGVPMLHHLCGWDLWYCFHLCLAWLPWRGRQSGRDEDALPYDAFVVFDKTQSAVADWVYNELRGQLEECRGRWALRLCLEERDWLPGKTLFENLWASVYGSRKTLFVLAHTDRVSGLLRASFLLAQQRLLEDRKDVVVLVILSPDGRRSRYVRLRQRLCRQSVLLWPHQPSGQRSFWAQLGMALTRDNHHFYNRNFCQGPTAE
Briefly: HEK293-Blue-hTLR-9 cells assay. To be noted: HEK293-Blue-hTLR9 cells, ODN2006 stimulation, 20 hrs, SEAP reporter; read-out: HEK/hTLR9 IC50. Type of data set: cell-based. Also noted: host or cells: HEK293-Blue-hTLR-9 (HEK293). As to the method:
The following tests were carried out in order to determine the activity of the compounds of formula (I) and (Ia) in HEK293-Blue-hTLR-7/8/9 cells assay.
HEK293-Blue-hTLR-9 cells assay:
A stable HEK293-Blue-hTLR-9 cell line was purchased from InvivoGen (Cat. #: hkb-htlr9, San Diego, Calif., USA). These cells were originally designed for studying the stimulation of human TLR9 by monitoring the activation of NE-KB. A SEAP (secreted embryonic alkaline phosphatase) reporter gene was placed under the control of the IFN-β minimal promoter fused to five NE-κB and AP-1-binding sites. The SEAP was induced by activating NE-κB and AP-1 via stimulating HEK-Blue hTLR9 cells with TLR9 ligands. Therefore the reporter expression was declined by TLR9 antagonist under the stimulation of a ligand, such as ODN2006 (Cat. #: tlrl-2006-1, Invivogen, San Diego, Calif., USA), for incubation of 20 hrs. The cell culture supernatant SEAP reporter activity was determined using QUANTI-Blue™ kit (Cat. #: rep-qb1, Invivogen, San Diego, Calif., USA) at a wavelength of 640 nm, a detection medium that turns purple or blue in the presence of alkaline phosphatase.
HEK293-Blue-hTLR9 cells were incubated at a density of 250,000˜450,000 cells/mL in a volume of 170 μL in a 96-well plate in Dulbecco's Modified Eagle's medium (DMEM) containing 4.5 g/L glucose, 50 U/mL penicillin, […], […], 2 mM L-glutamine, 10% (v/v) heat-inactivated fetal bovine serum with addition of 20 μL test compound in a serial dilution in the presence of final DMSO at 1% and 10 μL of 20 uM ODN2006 in above DMEM, perform incubation under 37° C. in a CO2 incubator for 20 hrs. Then 20 μL of the supernatant from each well was incubated with 180 μL Quanti-blue substrate solution at 37° C. for 2 h and the absorbance was read at 620˜655 nm using a spectrophotometer. The signaling pathway that TLR9 activation leads to downstream NE-κB activation has been widely accepted, and therefore similar reporter assay was modified for evaluating TLR9 antagonist.

T1 sequence (P10635 whole entry): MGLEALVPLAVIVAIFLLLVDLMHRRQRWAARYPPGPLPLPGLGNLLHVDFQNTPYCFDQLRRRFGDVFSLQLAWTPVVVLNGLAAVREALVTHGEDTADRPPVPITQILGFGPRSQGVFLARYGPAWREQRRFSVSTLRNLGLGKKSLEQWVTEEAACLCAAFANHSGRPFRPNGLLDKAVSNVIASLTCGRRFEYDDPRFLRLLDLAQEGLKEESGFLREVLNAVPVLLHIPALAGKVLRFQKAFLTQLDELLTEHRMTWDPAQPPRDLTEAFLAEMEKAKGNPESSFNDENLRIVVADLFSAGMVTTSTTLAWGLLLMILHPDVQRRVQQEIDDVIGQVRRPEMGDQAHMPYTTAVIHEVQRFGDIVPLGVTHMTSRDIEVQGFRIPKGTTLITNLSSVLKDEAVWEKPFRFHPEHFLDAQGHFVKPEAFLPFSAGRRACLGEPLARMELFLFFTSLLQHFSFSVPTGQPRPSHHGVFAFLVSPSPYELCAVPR

By inhibition is commonly meant the drop in the measured response relative to a control, in per cent. For the compound `Cc1cc(N2CCOC3CN(CC4CN(c5ccc(C#N)c6ncccc56)CC(C)O4)CC32)cc(C)n1` (single isomer, unassigned) [Example 17B], at CYP2D6, the inhibition at 10 min, 10 μM is 5%. Further, the IC50 on hTLR9 was below 32 nM.

`Cc1cc(N2CC3(CN(C[C@H]4CN(c5ccc(C#N)c6ncccc56)C[C@@H](C)O4)C3)C2)cc(CO)n1` [Example 1, 5-[(2S,6R)-2-[[2-[2-(hydroxymethyl)-6-methyl-4-pyridyl]-2,6-diazaspiro[3.3]heptan-6-yl]methyl]-6-methyl-morpholin-4-yl]quinoline-8-carbonitrile]: the inhibition at 10 min, 10 μM at CYP2D6 came to 6%. The IC50 at hTLR9 stood at 34 nM.

Take `C[C@@H]1CN(c2ccc(C#N)c3ncccc23)C[C@H](CN2CC3(C2)CN(c2ccnc(C4CC4)c2)CCO3)O1` [Example 3, 5-[(2S,6R)-2-[[8-(2-cyclopropyl-4-pyridyl)-5-oxa-2,8-diazaspiro[3.5]nonan-2-yl]methyl]-6-methyl-morpholin-4-yl]quinoline-8-carbonitrile]: the inhibition at 10 min, 10 μM at CYP2D6 is 6%. For the same compound, the IC50 at hTLR9 was 48 nM.

In the case of `Cc1cc(NC2CCN(C[C@H]3CN(c4ccc(C#N)c5ncccc45)C[C@@H](C)O3)CC2)cc(CO)n1` [Example 5], at CYP2D6, the inhibition at 10 min, 10 μM was found to be 7.5%. The IC50 on hTLR9 turned out to be 32 nM.

For `Cc1cc(NC2CCN(C[C@H]3CN(c4ccc(C#N)c5ncccc45)C[C@@H](C)O3)C2)cc(CO)n1` (stereo partly drawn) [Example 6], the inhibition at 10 min, 10 μM on CYP2D6 is 8%. Also, the IC50 on hTLR9 came out at 41 nM.

`Cc1cc(NC2CN(C[C@H]3CN(c4ccc(C#N)c5ncccc45)C[C@@H](C)O3)C2)cc(C)n1` [Example 7]: the inhibition at 10 min, 10 μM on CYP2D6 was -21.5%. The IC50 at hTLR9 amounted to 39 nM.

For `Cc1cc(N2CCC3(CN(C[C@H]4CN(c5ccc(C#N)c6ncccc56)C[C@@H](C)O4)C3)C2)cc(C)n1` [Example 9], the inhibition at 10 min, 10 μM on CYP2D6 is -5%. Also, the IC50 on hTLR9 turned out to be 32 nM.

Turning to `Cc1cc(N2C[C@H]3CN(C[C@H]4CN(c5ccc(C#N)c6ncccc56)C[C@@H](C)O4)C[C@H]3C2)cc(CO)n1` [Example 10], the inhibition at 10 min, 10 μM on CYP2D6 is 3.5%. The IC50 on hTLR9 was below 32 nM.

Consider `Cc1cc(N(C)C2CN(C[C@H]3CN(c4ccc(C#N)c5ncccc45)C[C@@H](C)O3)C2)cc(C)n1` [Example 11], for which the inhibition at 10 min, 10 μM at CYP2D6 was -7.5%. For the same compound, the IC50 on hTLR9 worked out at 40 nM.

In the case of `Cc1cc(N2CCC23CN(C[C@H]2CN(c4ccc(C#N)c5ncccc45)C[C@@H](C)O2)C3)cc(CO)n1` [Example 12], the inhibition at 10 min, 10 μM on CYP2D6 is -3%. Also, on hTLR9, the IC50 is 49 nM.

For `Cc1cc(N2CCOC3(CN(C[C@H]4CN(c5ccc(C#N)c6ncccc56)C[C@@H](C)O4)C3)C2)cc(C)n1` [Example 14], the inhibition at 10 min, 10 μM on CYP2D6 was 19%. Also, at hTLR9, the IC50 is below 32 nM.

As for `Cc1cc(N2CCC23CN(C[C@H]2CN(c4ccc(C#N)c5ncccc45)C[C@@H](C)O2)C3)ccn1` [Example 15], on CYP2D6, the inhibition at 10 min, 10 μM stood at 4%. On hTLR9, the IC50 is 71 nM.

`Cc1cc(N2CCOC3(CN(C[C@H]4CN(c5ccc(C#N)c6ncccc56)C[C@@H](C)O4)C3)C2)ccn1` [Example 16]: the inhibition at 10 min, 10 μM on CYP2D6 is 5%. Besides, the IC50 on hTLR9 was 38 nM.

In the case of `C[C@@H]1CN(c2ccc(C#N)c3ncccc23)C[C@H](CN[C@@H]2CCCN(c3ccnc(N)c3)C2)O1` [Example 21, 5-[(2S,6R)-2-[[[(3R)-1-(2-amino-4-pyridyl)-3-piperidyl]amino]methyl]-6-methyl-morpholin-4-yl]quinoline-8-carbonitrile], on CYP2D6, the inhibition at 10 min, 10 μM is 2%. In addition, the IC50 at hTLR9 is below 32 nM.

As to `C[C@@H]1CN(c2ccc(C#N)c3ncccc23)C[C@H](CN[C@H]2CCCN(c3ccnc(N)c3)C2)O1` [Example 22], the inhibition at 10 min, 10 μM at CYP2D6 stood at 2%. The IC50 at hTLR9 was 34 nM.

Take `Cc1cc(N2CCC[C@@H](NC[C@H]3CN(c4ccc(C#N)c5ncccc45)C[C@@H](C)O3)C2)cc(CO)n1` [Example 24]: the inhibition at 10 min, 10 μM at CYP2D6 was -9.5%. Besides, the IC50 on hTLR9 is below 32 nM.

On to `Cc1cc(N2CCC[C@H](NC[C@H]3CN(c4ccc(C#N)c5ncccc45)C[C@@H](C)O3)C2)cc(CO)n1` [Example 25], for which the inhibition at 10 min, 10 μM on CYP2D6 amounted to 8.5%. On hTLR9, the IC50 was below 32 nM.

With `Cc1cc(N2CC(NC[C@H]3CN(c4ccc(C#N)c5ncccc45)C[C@@H](C)O3)C2)cc(CO)n1` [Example 30], the inhibition at 10 min, 10 μM at CYP2D6 was 8.5%. The IC50 at hTLR9 stood at 88 nM.

Take `Cc1cc(N2CCC[C@@H](N(C)C[C@H]3CN(c4ccc(C#N)c5ncccc45)C[C@@H](C)O3)C2)cc(CO)n1` [Example 35]: the inhibition at 10 min, 10 μM at CYP2D6 was -4%. Further, on hTLR9, the IC50 is 34 nM.

On to `Cc1cc(N2CCC[C@H](N(C)C[C@H]3CN(c4ccc(C#N)c5ncccc45)C[C@@H](C)O3)C2)cc(CO)n1` [Example 38], for which the inhibition at 10 min, 10 μM at CYP2D6 turned out to be 0%. For the same compound, the IC50 on hTLR9 worked out at 39 nM.

As for `Cc1cc(N2CCN(C[C@H]3CN(c4ccc(C#N)c5ncccc45)C[C@@H](C)O3)CC2)cc(N)n1` [Example 40, 5-[(2S,6R)-2-[[4-(2-amino-6-methyl-4-pyridyl)piperazin-1-yl]methyl]-6-methyl-morpholin-4-yl]quinoline-8-carbonitrile], at CYP2D6, the inhibition at 10 min, 10 μM stood at 14.5%. The IC50 at hTLR9 turned out to be 41 nM.
